Consider 15 compounds from ChEMBL document CHEMBL3991601, “The target landscape of clinical kinase drugs” (Science, 2017).

The target in test [1] is T1, General transcription and DNA repair factor IIH helicase subunit XPD (Homo sapiens, UniProt P18074).
T1 sequence (P18074 whole entry): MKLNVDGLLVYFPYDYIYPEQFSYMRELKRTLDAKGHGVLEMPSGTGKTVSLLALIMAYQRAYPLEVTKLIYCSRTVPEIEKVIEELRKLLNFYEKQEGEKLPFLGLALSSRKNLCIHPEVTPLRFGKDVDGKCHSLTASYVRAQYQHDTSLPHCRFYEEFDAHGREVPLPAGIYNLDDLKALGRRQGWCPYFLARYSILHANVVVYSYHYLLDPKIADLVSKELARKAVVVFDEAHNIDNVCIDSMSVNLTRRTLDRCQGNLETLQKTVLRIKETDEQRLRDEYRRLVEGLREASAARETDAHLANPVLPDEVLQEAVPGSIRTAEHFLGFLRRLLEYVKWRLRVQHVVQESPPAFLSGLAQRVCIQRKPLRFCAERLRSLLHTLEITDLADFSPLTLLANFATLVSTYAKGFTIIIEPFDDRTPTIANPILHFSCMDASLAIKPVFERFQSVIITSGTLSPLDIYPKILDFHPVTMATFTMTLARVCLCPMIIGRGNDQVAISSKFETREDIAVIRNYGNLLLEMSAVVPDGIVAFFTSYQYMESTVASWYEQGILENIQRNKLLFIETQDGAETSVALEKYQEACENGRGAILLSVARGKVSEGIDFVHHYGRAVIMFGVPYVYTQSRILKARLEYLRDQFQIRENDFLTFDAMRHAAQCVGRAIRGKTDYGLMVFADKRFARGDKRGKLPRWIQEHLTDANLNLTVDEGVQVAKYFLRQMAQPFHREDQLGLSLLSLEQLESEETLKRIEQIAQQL

Test [2] concerns the target 5'-AMP-activated protein kinase subunit gamma-2 (Homo sapiens, UniProt Q9UGJ0).
For test [3], the target named is Ras-related C3 botulinum toxin substrate 1 (Homo sapiens, UniProt P63000).
Test [4] deals with Cyclin-dependent kinase 18 (Homo sapiens, UniProt Q07002).
The target in test [5] is Mast/stem cell growth factor receptor Kit (Homo sapiens, UniProt P10721).
The target in the next test is Actin-related protein 3 (Homo sapiens, UniProt P61158).
The target in test [6] is Cyclin-dependent kinase 9 (Homo sapiens, UniProt P50750).

Activity calls are given as the source filed them. Unless noted, the calls are words filed in the database; no cut-off is given here.

5'-AMP-activated protein kinase subunit gamma-2, sequence (Q9UGJ0 whole entry): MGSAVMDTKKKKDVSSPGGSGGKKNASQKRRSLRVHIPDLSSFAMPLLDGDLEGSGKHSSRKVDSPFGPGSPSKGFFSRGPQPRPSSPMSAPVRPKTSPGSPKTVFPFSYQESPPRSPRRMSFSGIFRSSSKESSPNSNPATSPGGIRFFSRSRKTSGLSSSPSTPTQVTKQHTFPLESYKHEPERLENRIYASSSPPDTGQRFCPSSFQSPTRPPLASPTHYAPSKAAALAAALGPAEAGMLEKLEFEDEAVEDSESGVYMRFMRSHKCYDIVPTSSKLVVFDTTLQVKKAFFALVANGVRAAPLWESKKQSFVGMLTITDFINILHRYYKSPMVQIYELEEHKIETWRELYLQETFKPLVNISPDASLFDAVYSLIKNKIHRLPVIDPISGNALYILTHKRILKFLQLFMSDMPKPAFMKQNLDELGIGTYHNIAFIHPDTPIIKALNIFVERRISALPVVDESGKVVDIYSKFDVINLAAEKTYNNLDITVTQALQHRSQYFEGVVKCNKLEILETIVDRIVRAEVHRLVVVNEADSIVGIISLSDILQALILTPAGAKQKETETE
Cyclin-dependent kinase 18, sequence (Q07002 whole entry): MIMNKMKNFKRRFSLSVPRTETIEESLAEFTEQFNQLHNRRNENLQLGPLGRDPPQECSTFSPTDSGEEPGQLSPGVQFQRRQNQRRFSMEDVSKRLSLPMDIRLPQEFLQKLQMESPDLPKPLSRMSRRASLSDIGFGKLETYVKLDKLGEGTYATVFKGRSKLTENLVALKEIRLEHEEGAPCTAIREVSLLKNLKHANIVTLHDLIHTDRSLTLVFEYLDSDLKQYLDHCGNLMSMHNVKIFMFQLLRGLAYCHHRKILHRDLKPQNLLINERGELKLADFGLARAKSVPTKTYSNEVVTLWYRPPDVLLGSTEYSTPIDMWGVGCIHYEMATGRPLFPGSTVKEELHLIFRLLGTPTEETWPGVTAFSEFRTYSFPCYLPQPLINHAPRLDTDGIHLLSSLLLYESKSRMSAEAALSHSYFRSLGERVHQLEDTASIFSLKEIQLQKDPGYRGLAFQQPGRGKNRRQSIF
Mast/stem cell growth factor receptor Kit, sequence (P10721 whole entry): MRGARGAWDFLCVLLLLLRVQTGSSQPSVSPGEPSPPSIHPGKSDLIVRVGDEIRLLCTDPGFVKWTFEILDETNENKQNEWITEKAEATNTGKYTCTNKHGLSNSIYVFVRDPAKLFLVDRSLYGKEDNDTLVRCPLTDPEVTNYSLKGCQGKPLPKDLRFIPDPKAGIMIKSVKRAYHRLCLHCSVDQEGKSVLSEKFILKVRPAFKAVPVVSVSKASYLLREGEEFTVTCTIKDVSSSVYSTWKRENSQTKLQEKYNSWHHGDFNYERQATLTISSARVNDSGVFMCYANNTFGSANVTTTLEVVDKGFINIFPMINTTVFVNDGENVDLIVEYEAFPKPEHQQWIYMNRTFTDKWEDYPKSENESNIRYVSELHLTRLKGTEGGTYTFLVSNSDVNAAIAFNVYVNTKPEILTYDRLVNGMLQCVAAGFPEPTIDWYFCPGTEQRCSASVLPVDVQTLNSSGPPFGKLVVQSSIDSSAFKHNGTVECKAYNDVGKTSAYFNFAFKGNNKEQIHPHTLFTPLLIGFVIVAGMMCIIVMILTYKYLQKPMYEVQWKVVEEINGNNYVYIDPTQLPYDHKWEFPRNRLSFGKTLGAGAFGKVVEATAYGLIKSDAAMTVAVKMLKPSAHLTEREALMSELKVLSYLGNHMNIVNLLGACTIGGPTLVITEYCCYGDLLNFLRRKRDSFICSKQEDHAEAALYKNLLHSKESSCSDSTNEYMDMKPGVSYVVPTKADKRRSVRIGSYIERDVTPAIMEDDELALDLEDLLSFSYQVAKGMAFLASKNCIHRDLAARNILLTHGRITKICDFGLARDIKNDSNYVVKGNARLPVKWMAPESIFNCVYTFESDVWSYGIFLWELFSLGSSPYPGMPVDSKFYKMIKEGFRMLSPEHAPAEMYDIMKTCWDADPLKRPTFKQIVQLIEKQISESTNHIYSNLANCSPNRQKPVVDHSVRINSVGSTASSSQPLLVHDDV
Cyclin-dependent kinase 9, sequence (P50750 whole entry): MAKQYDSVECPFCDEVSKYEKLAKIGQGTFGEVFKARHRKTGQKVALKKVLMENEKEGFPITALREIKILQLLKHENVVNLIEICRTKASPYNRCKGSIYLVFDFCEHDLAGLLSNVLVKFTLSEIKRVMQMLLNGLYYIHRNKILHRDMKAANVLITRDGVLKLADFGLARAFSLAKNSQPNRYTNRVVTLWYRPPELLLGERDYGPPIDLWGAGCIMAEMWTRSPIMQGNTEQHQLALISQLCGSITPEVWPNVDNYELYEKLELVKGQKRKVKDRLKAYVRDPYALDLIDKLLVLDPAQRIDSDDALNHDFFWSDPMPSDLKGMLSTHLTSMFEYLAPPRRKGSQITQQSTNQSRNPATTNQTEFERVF

Regarding `CC[C@H](Nc1ncnc2[nH]cnc12)c1nc2cccc(F)c2c(=O)n1-c1ccccc1` [IDELALISIB], the Kd in test [1] and in test [2] was > 30 µM (inactive) each time.

As to `O=C(c1ccc(F)c(F)c1Nc1ccc(I)cc1F)N1CC(O)([C@@H]2CCCCN2)C1` [COBIMETINIB], the Kd in test [3] was > 30 µM (inactive).

Regarding `O=C(O)[C@]1(Cc2cccc(Nc3nccs3)n2)CC[C@@H](Oc2cccc(Cl)c2F)CC1` [MK-5108], the Kd in test [4] was > 30 µM (inactive).

In the case of `CC(=O)Nc1cccc(-n2c(=O)n(C3CC3)c(=O)c3c(Nc4ccc(I)cc4F)n(C)c(=O)c(C)c32)c1` [TRAMETINIB], the Kd in test [4] was > 30 µM (inactive).

Regarding `CCc1cnn2c(NCc3ccc[n+]([O-])c3)cc(N3CCCC[C@H]3CCO)nc12` [DINACICLIB], the Kd in test [1] was 0.56 µM (active); in test [2], > 30 µM (inactive).

For `CN1CC[C@@H](c2c(O)cc(O)c3c(=O)cc(-c4ccccc4Cl)oc23)[C@@H]1CO`, in test [3], the Kd was > 30 µM (inactive).

For the compound `CCN1CCN(Cc2ccc(-c3cc4c(N[C@H](C)c5ccccc5)ncnc4[nH]3)cc2)CC1` [AEE-788], the Kd in test [5] was > 30 µM (inactive).

Consider `CN1CCC(COc2cnc(-c3cccc(Cn4nc(-c5cccc(C#N)c5)ccc4=O)c3)nc2)CC1` [TEPOTINIB], for which, on Actin-related protein 3, the Kd is > 30 µM (inactive).

For `Cc1cn(-c2cc(NC(=O)c3ccc(C)c(Nc4nccc(-c5cccnc5)n4)c3)cc(C(F)(F)F)c2)cn1` [NILOTINIB], the Kd in test [3] was > 30 µM (inactive).

In the case of `CNC(=O)c1cc(Oc2ccc(NC(=O)Nc3ccc(Cl)c(C(F)(F)F)c3)c(F)c2)ccn1` [REGORAFENIB], the Kd in test [1] and in test [2] was > 30 µM (inactive) in each case.

In the case of `Cc1cc(-c2cc(O)ccc2Cl)cc2nnc(Nc3ccc(OCCN4CCCC4)cc3)nc12`, the Kd in test [3] was > 30 µM (inactive).

`C=CC(=O)N1CCC(Oc2cc3c(Nc4ccc(Cl)c(Cl)c4F)ncnc3cc2OC)CC1` [POZIOTINIB]: in test [3], the Kd was > 30 µM (inactive).

With `O=C1NC(=O)/C(=C/c2ccc3nccc(-c4ccncc4)c3c2)S1` [GSK-1059615], in test [5], the Kd was > 30 µM (inactive).

Regarding `CC[C@@H]1C(=O)N(C)c2cnc(Nc3ccc(C(=O)N[C@H]4CC[C@H](N5CCN(CC6CC6)CC5)CC4)cc3OC)nc2N1C(C)C` [VOLASERTIB], the Kd in test [1] and in test [2] was > 30 µM (inactive) in each case.

With `CO[C@H]1C[C@@H]2CC[C@@H](C)[C@@](O)(O2)C(=O)C(=O)N2CCCC[C@H]2C(=O)O[C@H]([C@H](C)C[C@@H]2CC[C@@H](OCCO)[C@H](OC)C2)CC(=O)[C@H](C)/C=C(\C)[C@@H](O)[C@@H](OC)C(=O)[C@H](C)C[C@H](C)/C=C/C=C/C=C/1C` [EVEROLIMUS], in test [6], the Kd is > 30 µM (inactive).

In general, Kd refers to the constant that tells how readily two partners part at equilibrium.
